Patent US20030162834A1, “Natural physiologically active material effective on fish diseases and fish food containing the material” (priority 1998, published 2003)

Tests used:
[1] = tested on: Heterobothrium okamotoi; assay: Trial 1: in vitro immersion of oncomiracidia and gill-attached larvae in fatty acid seawater solutions; assay type: cell-based; conditions: 1 mM in seawater, 20 degrees centigrade
Protocol: Fatty acids having carbon number C2, C4 and C6-C10 were each dissolved in seawater at 1 mM concentration, and oncomiracidia of Heterobothrium okamotoi and larvae attaching to the gill were immersed in the seawater solutions. After 2 hours from the start of immersion, the efficacy of the fatty acids was investigated by counting the number of dead oncomiracidia and the number of larvae dropping down from the gill. More than 30 individuals of parasites were transferred to each group.
(§1) For any of the groups, the trial was made under condition of 20 degrees centigrade.

[2] = tested on: Heterobothrium okamotoi; assay: Trial 6: vitamin C enhancement trial on tiger puffer; assay type: in vivo; conditions: 5 g octanoic acid per 1 kg pellets (with or without 200 mg vitamin C per kg), oral, 15 days after first challenge
Excerpt: Fish tested: Tiger puffer weighing approximately 50.0 g in average.
Trial groups: Three groups, i.e., an octanoic-acid added group in which fish were fed diets added with octanoic acid, an octanoic-acid added/vitamin-C enhanced group in which fish were fed diets added with both octanoic acid and vitamin C, and a control group in which fish were fed diets not added with octanoic acid. The feeding rate was 2% of fish weight/day for each group.
Trial diets: The diets added with octanoic acid were prepared by spraying 5 g of octanoic acid to 1 kg of commercially available pellets for tiger puffer. The diets added with both octanoic acid and vitamin C were prepared by spraying 200 mg of vitamin C, dissolved in water, to 1 kg of the above diets added with octanoic acid. The control group fish were fed the commercially available pellets for tiger puffer.
Challenge trial: Each 5 pieces of fish from among a shoal of fish, in which no diseases such as parasitic infections were found, were put in a 100-liter water tank, and were fed the respective trial diets. After 7 days, approximately 750 individuals of oncomiracidia of Heterobothrium okamotoi were put into each water tank to infect the fish while water flow was stopped for 1 hour. The infection procedure was repeated every other day 5 times in total under the same condition. […]

[3] = tested on: Cryptocaryon irritans; assay: Trial 1: in vitro immersion of theronts in fatty acid seawater solutions; assay type: cell-based; conditions: 0.5 mM in seawater, 20 degrees centigrade; listed as C8
Protocol: For Cryptocaryon irritans, fatty acids having carbon number C2, C4 and C6-C10 were each dissolved in seawater at 0.5 mM concentration, and theronts of Cryptocaryon irritans were immersed in the seawater solutions. After 1 hour from the start of immersion, the efficacy of the fatty acids was investigated by counting the number of dead theronts. More than 200 individuals of parasites were transferred to each group.
as §1

CCCCCCCC(=O)O [octanoic acid]
emergence of dead oncomiracidia [1]: emerged earliest | larvae dropping down from the gill (drop-down rate) ([1]; 2 hours): highest drop-down rate | number of parasites attaching to the gill [2]: apparently fewer | emergence of dead theronts [3]: emerged earliest
